The structures appear in SMILES notation.

In this test the target is T1, DNA topoisomerase I (Top I) (Escherichia coli, UniProt P06612).
T1 construct: gene topA
In words: in vitro Top I inhibition assay (absorbance, plate reader); also affinity ultrafiltration HPLC-MS, EF […]. The test is classed as biochemical.

T1 sequence (P06612 whole entry): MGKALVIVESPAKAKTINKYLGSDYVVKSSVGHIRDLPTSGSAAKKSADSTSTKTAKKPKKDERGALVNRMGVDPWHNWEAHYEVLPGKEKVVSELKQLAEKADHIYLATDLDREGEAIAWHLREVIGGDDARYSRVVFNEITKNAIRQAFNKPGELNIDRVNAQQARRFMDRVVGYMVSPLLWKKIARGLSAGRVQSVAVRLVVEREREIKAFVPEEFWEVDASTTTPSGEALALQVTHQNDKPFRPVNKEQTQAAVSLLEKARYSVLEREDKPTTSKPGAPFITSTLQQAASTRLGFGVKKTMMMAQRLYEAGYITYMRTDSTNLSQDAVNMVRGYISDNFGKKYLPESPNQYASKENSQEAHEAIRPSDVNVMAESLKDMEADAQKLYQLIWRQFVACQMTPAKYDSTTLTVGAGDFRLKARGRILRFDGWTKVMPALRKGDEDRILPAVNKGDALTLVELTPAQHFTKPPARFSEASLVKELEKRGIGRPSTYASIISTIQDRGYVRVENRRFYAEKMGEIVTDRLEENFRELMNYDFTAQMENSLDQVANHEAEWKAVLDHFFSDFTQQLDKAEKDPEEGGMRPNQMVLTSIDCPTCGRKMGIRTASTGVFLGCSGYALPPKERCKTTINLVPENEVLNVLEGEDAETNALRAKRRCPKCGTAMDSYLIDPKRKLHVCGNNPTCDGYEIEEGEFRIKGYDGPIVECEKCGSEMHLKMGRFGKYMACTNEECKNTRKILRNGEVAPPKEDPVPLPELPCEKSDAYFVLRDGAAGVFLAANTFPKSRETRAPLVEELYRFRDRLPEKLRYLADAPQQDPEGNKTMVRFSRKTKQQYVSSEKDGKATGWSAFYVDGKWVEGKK

For `CN1CCC2=C[C@H](O)[C@H]3OC(=O)c4cc5c(cc4[C@H]3[C@@H]21)OCO5` [compound 5, hippeastrine], the midpoint of inhibition, the IC50, lay at 23 µM.

For the origin of these results see PMC5138836, “Antiproliferative activities of Amaryllidaceae alkaloids from Lycoris radiata targeting DNA topoisomerase I” (Scientific Reports, 2016).
